Laboratory results from patent publication US20240033236A1, “METHODS OF TREATING HERPES VIRAL INFECTION WITH 4-PHENYLBUTYRATE (PBA) OR A PHARMACEUTICALLY ACCEPTABLE SALT THEREOF” (THE BOARD OF TRUSTEES OF THE UNIVERSITY OF ILLINOIS, priority 2020, published 2024).
Entries after “also recorded” stand apart in the source; their conditions may differ.

Experiments:
[1] = system: HSV-1 McKrae; experiment: Murine HSV-1 encephalitis model (intranasal infection); assay type: in vivo; conditions: BALB/C mice, intranasal HSV-1 McKrae, compared with untreated
[2] = in vivo, iv; cited from earlier work
[3] = system: HSV-1; experiment: Plaque assay of HSV-1 infected HCEs treated with ER stress modulators; conditions: 0.1 MOI HSV-1 K26RFP, 24 hpi, tunicamycin, thapsigargin, Brefeldin-A 1 μM, salubrinal 75 μM, PBA 10 mM
Protocol: Infected cells suspended in 5004 of Opti-MEM prior to sonication using a probe sonication system at 70% amplitude for 30 seconds. Sonicated cell lysates or ocular/vaginal swabs were used as inoculants for a plaque assay to determine the total amount of infectious virus. In a typical experiment, Vero cells were plated at a seating density of 5×10^4 per well in a 24 well plate overnight. Upon confluency, the cell monolayers were washed with PBS and infected samples were overlaid for a period of 2 h at multiple dilutions. The cells were then washed twice with PBS prior to the addition of DMEM mixed with 0.5% methylcellulose. The plates were incubated for 72 h at 37° C. and 5% CO2 before they were fixed with methanol and stained with crystal violet to determine the extent of plaque formation.
HCEs were infected with 0.1 MOI HSV-1 K26RFP and treated with tunicamycin (1 μM), thapsigargin (1 μM), Brefeldin-A (1 μM), salubrinal (75 μM) or PBA (10 mM). At 24 hpi, cells were imaged for the presence of fluorescent HSV-1 and cells were lysed and used as inoculum on Vero cells to assess viral titer via plaque assay (FIGS. 3A and 3B). […] HCEs infected and treated with PBA with various concentrations were collected 24 hpi and the lysates from these cells were used as inoculum on Vero cells to determine a concentration dependent viral inhibition via a plaque assay (FIG. 3E).

[4] = system: HSV; experiment: Viral protein synthesis in HSV infected cells (immunoblotting); conditions: in vitro
Protocol: Cells were scraped and incubated with 1004 of Radioimmunoprecipitation assay (RIPA) buffer with protease phosphatase inhibitor cocktail (Halt™, 78440) for a period of 30 minutes on ice. Whole cell protein extracts (supernatant) were collected by centrifuging the mixture at 13,500 rpm on a bench top refrigerated (4° C.) centrifuge for 15 minutes. Protein samples were then denatured in NuPAGE LDS Sample Buffer (Invitrogen, NP00007) and 6-mercaptoethanol by heating them to 80° C. for 10 min. The denatured protein samples were allowed to cool and equal amounts of protein were added to 4-12% SDS-PAGE loading gels and run at a constant speed of 70V for 3 h. The protein from the gel was then transferred to a nitrocellulose membrane using an iBlot 2 dry transfer machine (Thermofisher Scientific, USA). Nitrocellulose membrane was blocked in 5% nonfat milk/BSA in tris buffer saline (TBS) and 0.1% tween 20 (TBST) for 1 h at room temperature. After the blocking step, membranes were incubated with primary antibody at dilutions of 1:1000 overnight at 4° C. The following day the blots were washed multiple times with TBST before the addition of horse radish peroxidase conjugated secondary IgG antibody at dilutions of 1:10,000 at room temperature. […] The density of the bands was quantified using ImageQuant TL image analysis software (version: 7). GAPDH was measured as a loading control.

[5] = in vivo; cited from earlier work
[6] = system: HSV-1 infected HCEs; experiment: Survival and syncytia of HSV-1 infected HCEs in cell culture; assay type: cell-based, human

Nc1nc2c(ncn2COCCO)c(=O)[nH]1 [ACV, acyclovir]
appearance and behavior of infected mice [1]: look healthier with no behavioral changes
renal toxicity [2]: renal toxicity including acute kidney injury

C[C@H]1CCC/C=C/[C@@H]2C[C@H](O)C[C@H]2[C@H](O)/C=C/C(=O)O1 [BA, Brefeldin-A]
viral replication / viral infection in HSV-1 infected HCEs [3]: inhibited viral replication

O=C([O-])CCCc1ccccc1.[Na+] [NaPBA, sodium 4-phenylbutanoate]
viral protein synthesis [4]: suppressed viral protein synthesis

O=c1[nH]c(=O)n([C@H]2C[C@H](O)[C@@H](CO)O2)cc1C(F)(F)F [TFT, trifluridine]
corneal toxicity [5]: corneal toxicity including inflammation, dryness and pain

C/C=C(/C)C(=O)O[C@H]1C(C)=C2[C@H]([C@@H]1OC(=O)CCCCCCC)[C@@](C)(OC(C)=O)C[C@H](OC(=O)CCC)[C@@]1(O)[C@H]2OC(=O)[C@@]1(C)O [TG, Thapsigargin]
viral replication / viral infection in HSV-1 infected HCEs [3]: inhibited viral replication

O=C(/C=C/c1ccccc1)NC(NC(=S)Nc1cccc2cccnc12)C(Cl)(Cl)Cl (stereo not drawn) [salubrinal]
survival of the HSV-1 infected cell [6]: form large syncytia and survive longer in cell culture; also recorded: increased survival of the cell
viral replication / viral infection in HSV-1 infected HCEs [3]: increased viral replication

Tunicamycin [TM]
viral replication / viral infection in HSV-1 infected HCEs [3]: inhibited viral replication
